ChEMBL document CHEMBL5579835, “Fluorescent octahydrophenazines as novel inhibitors against herpes simplex viruses” (Eur J Med Chem, 2024)
Activity calls are given as the source filed them. The calls are words filed in the database; no cut-off is given here.

Tests used:
Human alphaherpesvirus 1 [1] = assay: Antiviral activity against HSV-1 infected in African green monkey Vero cells assessed as reduction in viral growth by measuring relative cell viability at 20 uM incubated for 72 hrs by MTT assay; assay type: functional
Human alphaherpesvirus 2 [2] = assay: Antiviral activity against HSV-2 infected in African green monkey Vero cells assessed as reduction in viral growth incubated for 72 hrs by MTT assay; assay type: functional, organism-based; conditions: Human alphaherpesvirus 2, Vero
Human alphaherpesvirus 1 [3] = assay: Antiviral activity against HSV-1 infected in African green monkey Vero cells assessed as downregulation of viral VP16 mRNA expression at 20 uM incubated under co-plus post treatment condition for 1 hr by RT-qPCR analysis; assay type: functional, organism-based
Human alphaherpesvirus 1 [4] = assay: Antiviral activity against HSV-1 infected in African green monkey Vero cells assessed as downregulation of viral gD protein expression at 20 uM pre-treated with compound for 1 hr followed by viral infection by Western blotting analysis; assay type: functional, organism-based
Human alphaherpesvirus 1 [5] = assay: Antiviral activity against HSV-1 infected in African green monkey Vero cells assessed as downregulation of viral gD mRNA expression at 20 uM incubated under co-treatment condition for 1 hr by RT-qPCR analysis; assay type: functional, organism-based
Human alphaherpesvirus 1 [6] = assay: Antiviral activity against HSV-1 infected in African green monkey Vero cells assessed as downregulation of viral gD protein expression at 20 uM measured after 2 hrs by Western blotting analysis; assay type: functional, organism-based
Human alphaherpesvirus 1 [7] = assay: Antiviral activity against HSV-1 infected in African green monkey Vero cells assessed as reduction in viral plaque formation at 20 uM pre-treated with compound for 36 to 48 hrs followed by viral infection by crystal violet staining based assay; assay type: functional, organism-based; conditions: time 36-48 hrs
Human alphaherpesvirus 1 [8] = assay: Antiviral activity against HSV-1 infected in African green monkey Vero cells assessed as downregulation of viral gD mRNA expression at 20 uM pre-treated with compound for 1 hr followed by viral infection by RT-qPCR analysis; assay type: functional, organism-based
Human alphaherpesvirus 2 [9] = assay: Antiviral activity against ACV-resistant HSV-2 infected in African green monkey Vero cells assessed as reduction in viral growth incubated for 72 hrs by MTT assay; assay type: functional, organism-based; conditions: Human alphaherpesvirus 2, Vero
[10] = Fluorescence property of compound in H2O assessed as maximum emission wavelength in presence of fluorescein by spectrophotometric analysis; assay type: physicochemical
[11] = Fluorescence property of compound in H2O assessed as fluorescence quantum yield in presence of fluorescein by spectrophotometric analysis; assay type: physicochemical
Human alphaherpesvirus 1 [12] = assay: Antiviral activity against HSV-1 infected in African green monkey Vero cells assessed as reduction in viral growth incubated for 72 hrs by MTT assay; assay type: functional, organism-based; conditions: Human alphaherpesvirus 1, Vero
[13] = Fluorescence property of compound in crystal assessed as maximum emission wavelength in presence of fluorescein by spectrophotometric analysis; assay type: physicochemical
[14] = Fluorescence property of compound in cyclohexane assessed as fluorescence quantum yield in presence of fluorescein by spectrophotometric analysis; assay type: physicochemical
HEK-293T = assay: Cytotoxicity against human HEK293T cells at 5 to 80 uM incubated for 48 hrs by MTT assay; assay type: toxicity, cell-based; conditions: dose 5-80 µM
[15] = Fluorescence property of compound in crystal assessed as fluorescence quantum yield in presence of fluorescein by spectrophotometric analysis; assay type: physicochemical
Human alphaherpesvirus 1 [16] = assay: Antiviral activity against HSV-1 infected in African green monkey Vero cells assessed as downregulation of viral gD mRNA expression at 20 uM pre-infected with virus followed by compound treatment by RT-qPCR analysis; assay type: functional, organism-based
Human alphaherpesvirus 1 [17] = assay: Antiviral activity against HSV-1 infected in African green monkey Vero cells assessed as downregulation of viral gD protein expression at 10 uM incubated for 48 hrs by Western blotting analysis; assay type: functional, organism-based
[18] = Cytotoxicity against human HEK293T cells incubated for 48 hrs by MTT assay; assay type: toxicity, cell-based, HEK-293T
Human alphaherpesvirus 1 [19] = assay: Antiviral activity against HSV-1 infected in African green monkey Vero cells assessed as downregulation of viral gD mRNA expression incubated for 48 hrs by RT-qPCR analysis; assay type: functional, organism-based
[20] = Cytotoxicity against human HEK293T cells assessed as cell viability at 80 uM incubated for 48 hrs by MTT assay relative to control; assay type: toxicity, cell-based, HEK-293T; conditions: read-out: Activity
Human alphaherpesvirus 2 [21] = assay: Antiviral activity against HSV-2 infected in African green monkey Vero cells assessed as protection of cellular morphology incubated for 24 hrs CPE based microscopic analysis; assay type: functional, organism-based
Human alphaherpesvirus 1 [22] = assay: Antiviral activity against HSV-1 infected in African green monkey Vero cells assessed as downregulation of viral ICP8 protein expression at 20 uM measured after 2 hrs by Western blotting analysis; assay type: functional, organism-based
[23] = Fluorescence property of compound in cyclohexane assessed as maximum emission wavelength in presence of fluorescein by spectrophotometric analysis; assay type: physicochemical
[24] = Drug accumulation in African green monkey Vero cells assessed as subcellular localization in endoplasmic reticulum at 20 uM incubated for 1 to 24 hr by Me-THP-Naph staining based confocal scanning laser microscopic analysis; assay type: ADME, cell-based; conditions: chlorocebus sabaeus, time 1-24 hrs
Human alphaherpesvirus 1 [25] = assay: Antiviral activity against HSV-1 infected in African green monkey Vero cells assessed as downregulation of viral ICP8 protein expression at 20 uM pre-treated with compound for 1 hr followed by viral infection by Western blotting analysis; assay type: functional, organism-based
Human alphaherpesvirus 1 [26] = assay: Antiviral activity against HSV-1 infected in African green monkey Vero cells assessed as downregulation of viral VP16 mRNA expression at 20 uM pre-treated with compound for 1 hr followed by viral infection by RT-qPCR analysis; assay type: functional, organism-based
Human alphaherpesvirus 1 [27] = assay: Antiviral activity against HSV-1 infected in African green monkey Vero cells assessed as downregulation of viral VP16 mRNA expression at 20 uM incubated under co-treatment condition for 1 hr by RT-qPCR analysis; assay type: functional, organism-based
Human alphaherpesvirus 1 [28] = assay: Antiviral activity against HSV-1 infected in African green monkey Vero cells assessed as downregulation of viral VP16 mRNA expression incubated for 48 hrs by RT-qPCR analysis; assay type: functional, organism-based
Human alphaherpesvirus 1 [29] = assay: Antiviral activity against HSV-1 infected in African green monkey Vero cells assessed as protection of cellular morphology incubated for 24 hrs by CPE based microscopic analysis; assay type: functional, organism-based
Human alphaherpesvirus 2 [30] = assay: Antiviral activity against ACV-resistant HSV-2 infected in African green monkey Vero cells assessed as downregulation of viral gD protein expression at 20 uM incubated for 48 hrs by Western blotting analysis; assay type: functional, organism-based
Human alphaherpesvirus 1 [31] = assay: Antiviral activity against HSV-1 infected in African green monkey Vero cells assessed as downregulation of viral gD mRNA expression at 20 uM incubated under co-plus post treatment condition for 1 hr by RT-qPCR analysis; assay type: functional, organism-based
Human alphaherpesvirus 1 [32] = assay: Antiviral activity against HSV-1 infected in African green monkey Vero cells assessed as downregulation of viral VP16 mRNA expression at 20 uM pre-infected with virus followed by compound treatment by RT-qPCR analysis; assay type: functional, organism-based
Human alphaherpesvirus 1 [33] = assay: Antiviral activity against HSV-1 infected in African green monkey Vero cells assessed as downregulation of viral gD mRNA expression at 5 to 20 uM by RT-qPCR analysis; assay type: functional, organism-based; conditions: dose 5-20 µM
Human alphaherpesvirus 1 [34] = assay: Antiviral activity against HSV-1 infected in African green monkey Vero cells assessed as downregulation of viral gD protein expression at 5 to 20 uM by Western blotting analysis; assay type: functional, organism-based; conditions: dose 5-20 µM
Human alphaherpesvirus 1 [35] = assay: Antiviral activity against HSV-1 infected in African green monkey Vero cells assessed as reduction in viral growth by measuring relative cell viability at 5 uM incubated for 72 hrs by MTT assay; assay type: functional

CN1c2c(C#N)c(F)c(N3CCCC3)c(C#N)c2N(C)C2CCCCC21 (racemic)
Activity (Human alphaherpesvirus 1 [1]): 9%

CN1c2c(C#N)c(F)c(F)c(C#N)c2N(C)C2CCCCC21 (racemic)
EC50 (Human alphaherpesvirus 2 [2]): 11 µM | Activity (Human alphaherpesvirus 1 [3]): Active | Activity (Human alphaherpesvirus 1 [4]): Active | Activity (Human alphaherpesvirus 1 [1]): 39% | Activity (Human alphaherpesvirus 1 [5]): inactive | Activity (Human alphaherpesvirus 1 [6]): Active | Activity (Human alphaherpesvirus 1 [7]): Active | Activity (Human alphaherpesvirus 1 [8]): inactive | EC50 (Human alphaherpesvirus 2 [9]): 14.9 µM | Activity [10]: 555 nm | Activity [11]: 56.2% | EC50 (Human alphaherpesvirus 1 [12]): 9.2 µM | Activity [13]: 558 nm | Activity [14]: 91.6% | Activity (HEK-293T): Non-Toxic | Activity [15]: 54.4% | Activity (Human alphaherpesvirus 1 [16]): Active | Activity (Human alphaherpesvirus 1 [17]): Active | CC50 at 48 h [18]: > 100 µM | Activity (Human alphaherpesvirus 1 [19]): Dose-Dependent Effect | viability at 48 h, 80 µM [20]: 100% | Activity (Human alphaherpesvirus 2 [21]): Dose-Dependent Effect | Activity (Human alphaherpesvirus 1 [22]): Active | Activity [23]: 515 nm | Drug uptake [24]: Active | Activity (Human alphaherpesvirus 1 [25]): Active | Activity (Human alphaherpesvirus 1 [26]): inactive | Activity (Human alphaherpesvirus 1 [27]): Active | Activity (Human alphaherpesvirus 1 [28]): Dose-Dependent Effect | Activity (Human alphaherpesvirus 1 [29]): Dose-Dependent Effect | Activity (Human alphaherpesvirus 2 [30]): Active | Activity (Human alphaherpesvirus 1 [31]): Active | Activity (Human alphaherpesvirus 1 [32]): Active

CN1CCOc2c(C#N)c3c(c(C#N)c21)N(C)C1CCCCC1N3C (racemic)
Activity (Human alphaherpesvirus 1 [1]): 4%

CN1c2c(C#N)c3c(c(C#N)c2N(C)C2CCCCC21)OCCN3 (racemic)
Activity (Human alphaherpesvirus 1 [1]): 1%

CN(C)c1c(F)c(C#N)c2c(c1C#N)N(C)C1CCCCC1N2C (racemic)
Activity (Human alphaherpesvirus 1 [1]): 5%

CN1c2c(C#N)c(F)c(F)c(C#N)c2N(C)[C@H]2CCCC[C@@H]21
Activity (Human alphaherpesvirus 1 [33]): Active | EC50 (Human alphaherpesvirus 2 [2]): 5.8 µM | Activity (Human alphaherpesvirus 1 [1]): 40% | EC50 (Human alphaherpesvirus 2 [9]): 7.9 µM | Activity [10]: 555 nm | Activity [11]: 59.1% | EC50 (Human alphaherpesvirus 1 [12]): 4.1 µM | Activity [13]: 560 nm | Activity [14]: 92.3% | Activity [15]: 56.9% | Activity [23]: 515 nm | Drug uptake [24]: Active | Activity (Human alphaherpesvirus 1 [34]): Active

CN1c2c(C#N)c(F)c(N3CCOCC3)c(C#N)c2N(C)C2CCCCC21 (racemic)
Activity (Human alphaherpesvirus 1 [1]): 8%

N#Cc1c(F)c(F)c(C#N)c2c1NC1CCCCC1N2 (racemic)
Activity (Human alphaherpesvirus 1 [1]): 7%

CN1c2c(F)c(C#N)c(C#N)c(F)c2N(C)C2CCCCC21 (racemic)
Activity (Human alphaherpesvirus 1 [1]): 3%

Nc1nc2c(ncn2COCCO)c(=O)[nH]1 [ACYCLOVIR]
Activity (Human alphaherpesvirus 1 [35]): 81%

CN1c2c(C#N)c(F)c(F)c(C#N)c2N(C)[C@@H]2CCCC[C@H]21
Activity (Human alphaherpesvirus 1 [1]): 8% | Activity [10]: 555 nm | Activity [11]: 57.1% | Activity [13]: 560 nm | Activity [14]: 90.3% | Activity [15]: 57.3% | Activity [23]: 515 nm | Drug uptake [24]: Active

CN1c2c(C#N)c3c(c(C#N)c2N(C)C2CCCCC21)OCCO3 (racemic)
Activity (Human alphaherpesvirus 1 [1]): 0%

CN1c2c(C#N)c(F)c(N3CCCCC3)c(C#N)c2N(C)C2CCCCC21 (racemic)
Activity (Human alphaherpesvirus 1 [1]): 6%

CN1c2c(F)c(C#N)c(F)c(C#N)c2N(C)C2CCCCC21 (racemic)
Activity (Human alphaherpesvirus 1 [1]): 0%
